Measurements taken from patent publication US5077305A, “Thiazole carboxylic acids and esters” (Bristol-Myers Squibb Co., priority 1990, dated 1991).
In brackets after ≈: the same amount, converted by molar mass.

System: human platelet aggregation (ADP-induced)
Assay type: cell-based
Conditions: human platelet rich plasma; ADP final concentration 0.5 mcg/mL; read-out: Inhibition of Human Platelet Aggregation IC50 Vs ADP
Protocol: The aggregometer method of Born, C. […] Clin. Med. 1964, 64, 548-599 was used to assess the in vitro activity of the various compounds as to the inhibition of adenosine diphosphate (ADP) and collagen-induced platelet aggregation. The human volunteer donor's arm is cleansed with 70% ethyl alcohol. A sterile 20 ml syringe and needle are used to withdraw 20 ml of blood. The blood is immediately added to a test tube containing 3.8% sodium citrate to prevent clotting (1 part citrate to 9 parts blood).
Platelet rich plasma (PRP) was separated by centrifugation for 10 minutes at 1000 rpm (140 xg) from citrated (3.8%) human blood. All glassware used for preparation of PRP is silicon treated. ADP in final concentration of 0.5 mcg/mL or 0.05 mL of a collagen suspension prepared according to the method described by Evans, G., et al., J. Exp. Med., 1968, 128, 877-894 was used to induce aggregation. The various compounds tested were dissolved in dimethylsulfoxide (DMSO) so that 5 mcl added to the platelet rich plasma would yield the desired test concentration. Vehicle control trials were done and compared with aggregation induced in platelet rich plasma containing various concentrations of the test compounds. Dose response curves were obtained and Inhibitor Concentration (IC50) values calculated.

Row | Structure (SMILES) | IC50 [µg/mL]
1 | COC(=O)COc1cccc(CCc2nc(-c3ccccc3)c(-c3ccccc3)s2)c1 [Example 1, Methyl (3-[2-(4,5-diphenyl-2-thiazolyl)ethyl]phenoxy]acetate] | 0.41 (≈ 0.955 µM)
2 | O=C(O)COc1cccc(CCc2nc(-c3ccccc3)c(-c3ccccc3)s2)c1 [Example 2, [3-[2-(4,5-Diphenyl-2-thiazolyl)ethyl]phenoxy]acetic Acid] | 0.36 (≈ 0.866 µM)
